According to patent publication US10653657B2, “Method for treating hemolytic uremic syndrome” (ENZYCHEM LIFESCIENCES CORPORATION, priority 2015, dated 2020):

How the values were obtained:
[1] = test system: hematopoietic stem cells and megakaryocytes; conditions: reported in WO 99/26640; cited from earlier work
STAT1 = STAT1 transcriptional activity (luciferase) in gene transfected HepG2 cells; assay type: cell-based, human; conditions: 10 ng IFN-γ, PLAG 0.01-10 μg/ml, 12 hour incubation
Experimental: (§1) By using STAT6 inhibitor (S6I), it is confirmed that the reduction of complement 3 in HepG2 cells (human hepatocyte cell line) is regulated by STAT6. […] It is also confirmed that PLAG has selective efficacy on STAT6 over STAT1. FIG. 1 presents graphs showing STAT1 and STAT6 transcriptional activity in the PLAG treated HepG2 cells. NC refers to the unstimulated control cell. For the STAT1 assay, gene transfected HepG2 (human hepatocyte cell line) is treated with 10 ng of IFN-γ and serially diluted PLAG is added (0.01 μg/ml, 0.1 μg/ml, 1 μg/ml, and 10 μg/ml as shown) to see its effect on gene expression in the stimulated cell. For the STAT6 assay, gene transfected HepG2 cells are treated with 10 ng of IL-4 and again serially diluted PLAG is added (0.01 μg/ml, 0.1 μg/ml, 1 μg/ml, and 10 μg/ml as shown) to see its effect on gene expression in the stimulated cell. The assay is carried out following a 12 hour incubation of treated cells.

HepG2 cells = assay: WST-1 cell viability assay in HepG2 cells; assay type: cell-based; conditions: PLAG 1 to 100 μg/ml
Experimental: (§2) The incubated HepG2 cell lines are treated with PLAG (1˜100 μg/ml), followed by IL-4 and TNF-α, reacted for 1 hour, incubated for 18 hours at 37° C. and the supernatant is isolated. Quantitation of the amount of C3 in the cellular culture medium (supernatant) from HepG2 cells is performed by ELISA using a commercially available monoclonal antibody (mAb, R&D Systems) and the manufacture's protocol; the results are presented in FIGS. 3A-3C. C3 is expressed spontaneously under in vitro culture conditions using 10% FCS added to HepG2 cells incubated for 12 hr. The cells are treated with different doses of PLAG from 1 to 100 μg/ml (FIG. 3A, FIG. 3B) or 10 and 100 μg/ml of S6I (FIG. 3C), reacted with IL-4 and TNF-α for 1 hr and then incubated for 18 hr at 37° C. Cellular viability is confirmed using the WST-1 assay (FIG. 3A).

C3 [2] = assay: C3 inhibition in HMC-1 cells, ELISA of expressed protein; assay type: cell-based, human; conditions: PLAG 1, 10 and 100 μg/mL for 2 hours; activated 72 hours with 10% FBS
Experimental: In a separate experiment, human mast cells (HMC-1, 1×10^5 cells/ml) are treated with PLAG at various concentrations (1, 10 and 100 μg/mL) for 2 hours. The cells are activated for 72 hours with 10% FBS (Fetal bovine serum)-containing IMDM. The decrease of C3 is confirmed by ELISA analysis of the expressed protein.

STAT6 [3] = biological target: T1, STAT6 (Homo sapiens, UniProt P42226); assay: Dephosphorylation of STAT6 (Western blot, anti-phosphorylated STAT6) in IL-4 stimulated cells; assay type: cell-based; conditions: U937, Jurkat and A549 cells; PLAG 0.01 to 10 μg/ml; 10 ng/ml IL-4; 15 min after stimulation
T1 construct: endogenous in cells; host or cells: U937, A549, Jurkat
T1 sequence (P42226 1-847): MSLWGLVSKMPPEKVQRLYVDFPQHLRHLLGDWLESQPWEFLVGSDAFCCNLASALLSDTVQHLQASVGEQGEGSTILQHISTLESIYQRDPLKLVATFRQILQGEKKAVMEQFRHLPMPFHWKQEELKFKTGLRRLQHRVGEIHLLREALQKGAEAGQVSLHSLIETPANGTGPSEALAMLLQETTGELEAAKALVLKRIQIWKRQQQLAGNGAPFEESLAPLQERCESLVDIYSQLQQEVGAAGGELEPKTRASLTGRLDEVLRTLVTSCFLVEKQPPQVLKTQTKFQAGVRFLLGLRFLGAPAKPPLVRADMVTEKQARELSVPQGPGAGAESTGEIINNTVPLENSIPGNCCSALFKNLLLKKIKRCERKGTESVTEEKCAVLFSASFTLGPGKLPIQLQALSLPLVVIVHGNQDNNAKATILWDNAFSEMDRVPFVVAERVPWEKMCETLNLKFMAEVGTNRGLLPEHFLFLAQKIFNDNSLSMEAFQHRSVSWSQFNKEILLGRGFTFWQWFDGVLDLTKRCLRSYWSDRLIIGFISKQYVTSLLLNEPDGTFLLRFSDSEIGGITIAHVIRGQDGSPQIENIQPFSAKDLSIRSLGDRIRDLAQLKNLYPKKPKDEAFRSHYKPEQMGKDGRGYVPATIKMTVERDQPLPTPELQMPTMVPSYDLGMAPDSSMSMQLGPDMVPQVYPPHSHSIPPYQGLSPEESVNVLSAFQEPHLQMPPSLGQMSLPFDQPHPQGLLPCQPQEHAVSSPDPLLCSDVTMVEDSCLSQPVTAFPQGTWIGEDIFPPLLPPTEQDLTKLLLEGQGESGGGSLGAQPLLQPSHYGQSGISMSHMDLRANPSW
Experimental: Dephosphorylation of STAT6 is examined using anti-phosphorylated STAT6 in U937, A549, and Jurkat cell lysates treated with PLAG at a concentration of from 0.01 to 10 μg/ml. Phosphorylation of STAT6 is induced by treatment with 10 ng/ml of IL-4. Dephosphorylation of STAT1 is examined in the U937 cell lysate treated with PLAG (0.01 to 10 μg/ml). Phosphorylation of STAT1 is induced by 10 ng of IFN-γ treatment. Dephosphorylation of STAT1 and STAT6 is examined at 15 min after stimulation with IFN-γ and IL-4 respectively, in the PLAG pretreated cells. […] The transcriptional activity of STAT6 is decreased by the dephosphorylation of STAT6. […] No effect of PLAG on STAT1 phosphorylation is observed.

[4] = Colony forming units (CFUs) in spleen assay in heavily irradiated mice; assay type: in vivo; conditions: PLAG 50 mg/kg/d i.p. or p.o.
Experimental: Colony Forming Units (CFUs) in Spleen Assay in Vivo: In order to determine the in vivo effect of PLAG on the recovery of hematopoiesis, a CFUs assay is performed in heavily irradiated mice.

complement 3 = assay: Complement 3 activation by chemotherapeutic agents in mouse model; assay type: in vivo; conditions: mice; PLAG 50 mg/kg daily 3 weeks with Gemcitabine, Cyclosphosphamide or Tamoxifen
Experimental: The effect of PLAG for treatment of chemotherapy-induced thrombocytopenia (CIT) is evaluated in an animal model. Anti-cancer agents (Gemcitabine 50 mg/kg, Cyclosphosphamide 100 mg/kg, or Tamoxifen 50 mg/kg) are dosed daily for 3 weeks; PLAG is also administered at a dose of 50 mg/kg daily for 3 weeks.
It is believed that the neutropenia and thrombocytopenia of these agents and other chemotherapeutic agents may be due at least in part to a specific complement-mediated toxicity. This is seen in FIG. 5.

STAT6 [5] = assay: STAT6 transcriptional activity (luciferase) in gene transfected HepG2 cells; assay type: cell-based, human; conditions: 10 ng IL-4, PLAG 0.01-10 μg/ml, 12 hour incubation
Experimental: as §1

C3 [6] = assay: C3 in culture supernatant of HepG2 cells by ELISA; assay type: cell-based, human; conditions: PLAG 1 to 100 μg/ml; IL-4 and TNF-α 1 hr, then 18 hr at 37° C.
Experimental: as §2

C3 [7] = assay: C3 expression in HMC-1 cells induced with IL-4 and TNF-α (RT-PCR / blots); assay type: cell-based, human
Experimental: A blood cell line, HMC-1 (human mast cell, American Type Culture Collection, ATCC, Rockville, Md.) is incubated and maintained at 37° C. under 5% CO2 humid conditions. The medium is IMDM (Life Technologies, Karlsruhe, Germany) containing 10% Fetal Calf Serum (FCS, HyClone, Logan, Utah), 2 mM […], 100 μg/ml penicillin, 100 μg/ml streptomycin (Life Technologies). The cultured HMC-1 cells (1×10^6 cells/ml) are pre-treated with 0.1 and 1 μg/mL concentrations of PLAG, followed by treatment with IL-4 (5 ng) and/or TNF-α (10 ng) to induce cellular activities.
The expressed C3 and its mRNA level change are observed by using RT-PCR (Reverse Transcriptase Polymerase Chain Reaction). The RT-PCR is carried out as follows: the total RNA is separated by the standard protocol and cDNA is synthesized using AccuScript High Fidelity 1st Strand cDNA Synthesis Kit (Stratagene). Two-step RT-PCR reaction is conducted using Oligo-dT primer and reverse transcriptase, a pair of primers and Taq polymerase (Takara, Shiga, Japan). […] The product of PCR is separated using 1.5% agarose gel, dyed with ethidium bromide (EtBr), and visualized with Gel Doc 2000 UV trans-illuminator (Bio-Rad Laboratories, Hercules, Calif., USA), and the experimental data is analyzed using Quantity One software (Bio-Rad Laboratories).

C3 [8] = assay: C3 mRNA expression in HepG2 cells by RT-PCR; assay type: cell-based, human
Experimental: A liver cell line, HepG2 (American Type Culture Collection, ATCC, Rockville, Md.), is incubated and maintained at 37° C., 5% CO2 humid atmosphere in DMEM medium. When HepG2 cells, which are known to produce complement in culture, are treated with PLAG, the activity of complement is reduced effectively, as confirmed by RT-PCR of mRNA. In the RT-PCR, 5×10^5 HepG2 cells/ml are distributed into 12 well plates and induced C3 for 12 hours with 10% FCS. Then PLAG is added and further cultured for 2 hours. Cells are harvested and mRNA is isolated and RT-PCR is carried out with specific primers for C3; GAPDH is used as an internal control.

Structure (SMILES) | Growth-stimulating activities of hematopoietic stem cells and megakaryocytes [1] | STAT1 expression (transcriptional activity, luciferase) (STAT1) | Cellular propagation and death (WST-1 viability) (HepG2 cells) | Decrease of C3 (ELISA) in HMC-1 cells (C3 [2]) | IL-4 treatment induced STAT6 phosphorylation (STAT6 [3]) | Number of splenic nodules, primitive progenitor cells and megakaryocytes [4] | Complement 3 activation caused by chemotherapeutic agents (complement 3) | STAT6 expression (transcriptional activity, luciferase) (STAT6 [5]) | Expression of C3 (ELISA, HepG2 supernatant) (C3 [6]) | Expression of C3 in HMC-1 cells (C3 [7]; pre-treated with 0.1 and 1 μg/mL PLAG, then IL-4 (5 ng) and TNF-α (10 ng)) | Inhibition of C3 expression (RT-PCR) in HepG2 (C3 [8]; PLAG 1 μg/ml, 2 hours, C3 induced 12 hours with 10% FCS) | Inhibition of C3 expression (RT-PCR) in HepG2 (C3 [8]; PLAG 10 μg/ml, 2 hours, C3 induced 12 hours with 10% FCS) | Expression of C3 in HMC-1 cells (C3 [7]; IL-4 and TNF-α followed by S6I) | Inhibition of C3 expression (RT-PCR) in HepG2 (C3 [8]; S6I 10 and 100 μg/ml, compared with PLAG 1 and 10 μg/ml)
CCCCC/C=C\C/C=C\CCCCCCCC(=O)OC(COC(C)=O)COC(=O)CCCCCCCCCCCCCCC (racemic) [PLAG, 1-palmitoyl-2-linoleoyl-3-acetylglycerol] | have growth-stimulating activities | no effect | does not affect | proportional to the concentration of PLAG | inhibited with increasing PLAG concentrations | marked increase | largely blocked | significant, dose-dependent effect | decreased dose-dependently | suppressed by PLAG on a concentration dependent basis | somewhat | entirely | – | –
NC(=O)c1cnc(NCCc2ccc(O)c(Cl)c2)nc1NCc1ccccc1 [S6I, reference compound] | – | – | – | – | – | – | – | – | – | – | – | – | comparable | comparable
